Reference: patent US20220205982A1 (CHILDREN'S HOSPITAL MEDICAL CENTER, priority 2019, published 2022)
Read-outs that look alike come from different tables or passages of the source.

How the values were obtained:
[1] = Clinical outcome and toxicity after melphalan full dose in RIC allogeneic HCT (engraftment, chimerism, mucositis, VOD, GVHD); format: in vivo, human
Protocol: Patients undergoing allogeneic HCT for non-malignant disorders with a uniform RIC regimen that included alemtuzumab, fludarabine and melphalan were enrolled in this study. Full standard dose of melphalan was set as follows: • 140 mg/m^2 in patients having a body weight >10 kg, • 4.7 mg/kg in patients having a body weight <10 kg, and • 70 mg/m^2 in one patient with a radio sensitivity disorder.
Blood samples were obtained for PK measurement after the administration of test dose and the full standard dose of melphalan. A total of 10 blood samples were obtained around each dose of melphalan: at baseline (5-10 min prior to start of the melphalan infusion of) and then approximately at 5 min, 15 min, 30 min, 45 min, 60 min, 2 hour, 2.5, 4, and 6 hours after the end of the melphalan infusion. Samples were collected on ice and transported to the institution's mass spectrometry laboratory for instant analysis by PS-MS/MS and conventional LC-MS/MS. Patient data collected for analysis included baseline organ function, presence of oral and gastrointestinal mucositis, renal and liver dysfunction including VOD, initial donor chimerism, graft rejection, and acute and chronic GVHD (aGVHD and cGVHD). The Common Terminology Criteria for Adverse Events (CTCAE) version 4.0 was used to evaluate adverse events. Acute and chronic GVHD were assessed by standardized published criteria. See, e.g., Glucksberg H, et al. Transplantation. 1974; 18:295-304 and Filipovich A H, et al. Biol Blood Marrow Transplant. 2005; 11:945-956. Interim analyses were completed after enrollment of 5 patients and 10 patients respectively to validate data following 25% and 50% of intended total patient enrollment. The AUC range that led to full donor chimerism without excess toxicity in majority of patients was selected to be the desired target AUC for full dose adjustment. In patients with baseline impaired organ function, personalized full dose melphalan was adjusted to limit toxicity if test dose PK predicted standard full dose AUC was higher than the desired target AUC range.

[2] = PK of melphalan in plasma by ESI-LC-MS/MS in patients undergoing HSCT; format: in vivo; conditions: human, intravenous
Protocol: Patients undergoing HSCT were administered by intravenous infusion a low dose of melphalan (referred to as the ‘test’ dose) to first determine each patient's individualized pharmacokinetics of the drug. After that the personalized optimal full dose was calculated from these measurements and then administered. The test dose equated to 10% of the expected standard full dose for each patient. Blood samples for pharmacokinetic measurement were collected after the test dose and again after the full standard dose of melphalan. Samples were collected at baseline, 5-10 mins before drug infusion, and then 5 min, 15 min, 30 min, 45 min, 1 h, 2h, 2.5h, 4h, and 6h post-infusion. The blood samples were collected on ice and immediately transferred to the lab for PS-MS/MS analysis after collection to minimize drug degradation. Plasma samples from the same blood draw were also obtained after centrifugation at 3000 rpm for 15 min and stored at −80° C. degree until analyzed by both PS-MS/MS and LC-ESI-MS/MS.
Each patient's pharmacokinetic profile was determined using WinNonlin v6.4 (Pharsight, Mountain View, Calif.). […]
The PS-MS\MS method was validated in accordance with the FDA guidance for Bioanalytical Method Validation (fda.gov/downloads/Drugs/Guidance/ucm070107.pdf, May 2011), and Bansa S, et al., AAPS J., 2007, 9, 109-114. Specifically, three analytical runs were processed and analyzed to assess sensitivity, reproducibility, accuracy and precision. […] The assay accuracy was evaluated by comparing results obtained by PS-MS/MS to those obtained by a validated in-house LC-MS/MS melphalan assay for the same samples, wherein melphalan samples were measured by liquid chromatography-tandem mass spectrometry (LC-MS/MS) with selected-reaction monitoring and with the use of stable isotopic-labeled [2H8]-melphalan as the internal standard. Samples were analyzed with the LC20AD HPLC system (Shimadzu) coupled to the TSQ Quantum Ultra Triple Quadrupole Mass Spectrometer (Thermo Scientific). […]

[3] = cited from earlier work
plasma proteins = conditions: cited from earlier work
[4] = ambient temperature; hydrolyzed to monohydroxymelphalan, then dihydroxymelphalan; cited from earlier work
[5] = five patients, adjusted full dose
[6] = sixth patient, initial HCT, full dose 0.44 mg/kg
[7] = sixth patient, second HCT, full dose 1.2 mg/kg

Structure (SMILES): N[C@@H](Cc1ccc(N(CCCl)CCCl)cc1)C(=O)O [melphalan, 4-[Bis(2-chloroethyl)amino]-L-phenylalanine]
- donor chimerism at engraftment [1, 5]: ≥ 99%
- patients who developed VOD [1, 5]: None
- patients with grade 3 mucositis [1, 5]: all 5
- patients who developed GVHD ([1]; four patients): 15%
- patients who developed grade 1 acute GVHD of skin ([1]; human, in vivo): Two
- patients who developed limited chronic GVHD ([1]; human, in vivo): two
- VOD of the liver or other excessive toxicity [1, 6]: did not develop VOD of the liver or other excessive toxicity
- graft outcome [1, 6]: developed secondary graft failure
- whole blood donor chimerism [1, 6]: 79%
- VOD of the liver or other excessive toxicity [1, 7]: without developing VOD of the liver or other excessive toxicity
- donor chimerism [1, 7]: 100%
- patients who developed VOD of the liver ([1]; standard dose melphalan): Two
- patients who developed grade 1 mucositis ([1]; standard dose melphalan): one
- patients who developed grade 2 mucositis ([1]; standard dose melphalan): 5 patients
- patients who developed grade 3 mucositis ([1]; standard dose melphalan): Ten
- patients who developed grade 4 mucositis ([1]; standard dose melphalan): one
- patients who developed primary graft failure ([1]; standard dose melphalan): None
- donor chimerism at engraftment ([1]; standard dose melphalan, all patients): > 95%
- AUC ([2]; 10 % of the expected standard full dose, lower test doses, ESI-LC-MS/MS, n=4, read-out: calculated mean AUC): 430 ± 210 ng·h/mL
- AUC ([2]; Full Dose, individual patients and mean row, read-out: ESI-LC-MS/MS Plasma AUC): 3900 ng·h/mL
- AUC ([2]; full dose, ESI-LC-MS/MS method, n=5, read-out: calculated mean AUC): 4300 ± 1000 ng·h/mL
- inter-patient variability in melphalan exposure ([3]; adults undergoing autologous HCT for multiple myeloma): up to 5 fold
- contribution of renal elimination to melphalan clearance ([3]; in vivo): low
- penetration into cerebrospinal fluid (CSF) ([3]; in vivo): low
- steady-state volume of distribution ([3]; in vivo): about 0.5 L/kg
- interactions with immunoglobulins (plasma proteins): negligible
- melphalan (covalently) irreversibly bound to plasma proteins (plasma proteins; plasma): Approximately 30%
- stability in blood and plasma [4]: unstable
